This is an account of results in patent publication US20230203098A1, “HUMAN TRANSFERRIN RECEPTOR BINDING PEPTIDE” (priority 2020, published 2023).

pKd: −log10 of the molar value. Where a SMILES comes first, the peptide text is derived from it. Bridges are numbered along the chain shown (N, C = ends). Primed or numbered codes have the meaning given here. [ ]: non-standard residue; d: D form. Trp(1-CH2COOH) = N[C@@H](Cc1cn(CC(=O)O)c2ccccc12)C(=O)O; NMeY = CN[C@@H](Cc1ccc(O)cc1)C(=O)O; NMeF = CN[C@@H](Cc1ccccc1)C(=O)O; PEG11′ = not defined here

The target of one assay is transferrin receptor (hTfR) (Homo sapiens, UniProt P02786). As to the kind of experiment: Intermolecular interaction evaluation test between transferrin receptor (hTfR) and peptide by surface plasmon resonance (SPR). In kind it is binding. The following applies: SPR, hTfR; class symbols A-D; read-out: KD. The method, boiled down: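 hTfR captured on Ni-NTA chip then amine-coupled; peptides run single-cycle kinetics at 5–100 nM in 10 mM HEPES pH 8.0, 150 mM NaCl, 0.05% Tween 20, 0.1% BSA, 1.0% DMSO. KD from least-squares curve fitting of sensorgrams.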
Chain of transferrin receptor (hTfR) (P02786 whole entry): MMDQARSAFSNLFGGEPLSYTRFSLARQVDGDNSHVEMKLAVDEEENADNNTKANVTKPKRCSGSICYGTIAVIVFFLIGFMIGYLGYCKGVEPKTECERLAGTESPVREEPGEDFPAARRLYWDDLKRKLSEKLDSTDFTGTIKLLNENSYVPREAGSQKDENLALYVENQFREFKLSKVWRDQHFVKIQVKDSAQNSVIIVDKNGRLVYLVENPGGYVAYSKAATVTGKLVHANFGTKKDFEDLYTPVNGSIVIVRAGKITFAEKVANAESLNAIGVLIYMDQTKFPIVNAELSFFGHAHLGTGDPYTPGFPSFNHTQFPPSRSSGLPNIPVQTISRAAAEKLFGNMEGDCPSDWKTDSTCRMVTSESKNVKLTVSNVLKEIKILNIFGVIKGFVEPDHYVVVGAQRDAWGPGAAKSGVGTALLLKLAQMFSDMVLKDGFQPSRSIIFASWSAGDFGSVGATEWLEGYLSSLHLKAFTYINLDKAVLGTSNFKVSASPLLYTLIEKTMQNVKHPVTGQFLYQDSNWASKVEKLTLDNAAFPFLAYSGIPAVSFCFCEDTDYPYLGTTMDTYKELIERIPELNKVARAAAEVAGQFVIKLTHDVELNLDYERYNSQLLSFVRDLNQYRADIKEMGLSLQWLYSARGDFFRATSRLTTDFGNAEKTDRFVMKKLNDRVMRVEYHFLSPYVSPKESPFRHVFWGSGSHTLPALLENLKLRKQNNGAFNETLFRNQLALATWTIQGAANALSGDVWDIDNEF
On to `CC[C@H](C)[C@@H]1NC(=O)[C@H](Cc2ccc(O)cc2)NC(=O)[C@H](Cc2ccc(O)cc2)NC(=O)[C@H](CC(N)=O)NC(=O)[C@H](Cc2cn(CC(=O)O)c3ccccc23)NC(=O)[C@H](C(C)C)NC(=O)[C@H](Cc2ccccc2)N(C)C(=O)[C@H](C(C)C)NC(=O)[C@H](C)NC(=O)CSC[C@@H](C(=O)N[C@H](CCC(=O)O)C(N)=O)NC(=O)[C@H](Cc2ccc(O)cc2)N(C)C(=O)[C@H](Cc2ccc(O)cc2)NC(=O)[C@@H](CCCNC(=N)N)NC(=O)[C@H](CCCNC(=N)N)NC(=O)[C@H](CCC(=O)O)NC1=O` [compound 473] ({CH2CO}-AV[NMeF]V[Trp(1-CH2COOH)]NYYIER[dR]Y[NMeY]C[dE]-NH2; thioether N-15), for which the pKd was 6.00 to 7.00.

The same assay, now with this note: SPR, hTfR; class symbols A-D; read-out: KD (column without head, continuation of the table series).
Take `CC[C@H](C)[C@@H]1NC(=O)[C@H](Cc2ccc(O)cc2)NC(=O)[C@H](Cc2ccc(O)cc2)NC(=O)[C@H](CC(N)=O)NC(=O)[C@H](Cc2c[nH]c3ccc(Cl)cc23)NC(=O)[C@H](C(C)C)NC(=O)[C@H](Cc2ccc(F)cc2)N(C)C(=O)[C@H](C(C)C)NC(=O)[C@H](C)NC(=O)CSC[C@@H](C(N)=O)NC(=O)[C@H](Cc2ccc(O)cc2)N(C)C(=O)[C@H](Cc2ccccc2)NC(=O)[C@H](CCCCNC(=O)CCOCCOCCOCCOC)NC(=O)[C@H](CCCNC(=N)N)N(C)C(=O)[C@H]([C@@H](C)CC)NC1=O` [compound 489]: the pKd is 6.00 to 7.00.

Take `CC[C@H](C)[C@@H]1NC(=O)[C@H](Cc2ccc(O)cc2)NC(=O)[C@H](Cc2ccc(O)cc2)NC(=O)[C@H](CC(N)=O)NC(=O)[C@H](Cc2c[nH]c3ccccc23)NC(=O)[C@H](C(C)C)NC(=O)[C@H](Cc2ccccc2)N(C)C(=O)[C@H](C(C)C)NC(=O)[C@H](C)NC(=O)CSC[C@@H](C(=O)NCC(=O)NCCOCCOCCOCCOCCOCCOCCOCCOCCOCCOCCOCCOCCC(=O)N[C@@H](CCCCN=[N+]=[N-])C(N)=O)NC(=O)[C@H](Cc2ccc(O)cc2)N(C)C(=O)[C@H](Cc2ccc(O)cc2)NC(=O)[C@H](CCCNC(=N)N)NC(=O)[C@H](CCCNC(=N)N)NC(=O)[C@H]([C@@H](C)CC)NC1=O` [compound 501]: the pKd was 7.00 to 9.00.

For `CC[C@H](C)[C@@H]1NC(=O)[C@H](Cc2ccc(OC)cc2)NC(=O)[C@H](Cc2ccc(O)cc2)NC(=O)[C@H](CC(N)=O)NC(=O)[C@H](Cc2c[nH]c3ccccc23)NC(=O)[C@H](C(C)C)NC(=O)[C@H](Cc2cccc(Cl)c2)N(C)C(=O)[C@H](C(C)C)NC(=O)[C@H](C)NC(=O)CSC[C@@H](C(=O)NCCOCCOCCOCCOCCC(N)=O)NC(=O)[C@H](Cc2ccc(O)cc2)N(C)C(=O)[C@H](Cc2ccccc2)NC(=O)[C@H](CCCNC(=N)N)NC(=O)[C@H](CCCNC(=N)N)NC(=O)[C@H]([C@@H](C)CC)NC1=O` [compound 502], the pKd was more than 9.00.

Consider `CC[C@H](C)[C@@H]1NC(=O)[C@H](Cc2ccc(OC)cc2)NC(=O)[C@H](Cc2ccc(O)cc2)NC(=O)[C@H](CC(N)=O)NC(=O)[C@H](Cc2c[nH]c3ccccc23)NC(=O)[C@H](C(C)C)NC(=O)[C@H](Cc2cccc(Cl)c2)N(C)C(=O)[C@H](C(C)C)NC(=O)[C@H](C)NC(=O)CSC[C@@H](C(=O)NCCOCCOCCOCCOCCC(N)=O)NC(=O)[C@H](Cc2ccc(O)cc2)N(C)C(=O)[C@H](Cc2ccccc2)NC(=O)[C@H](CCCNC(=N)N)NC(=O)[C@H](CCCCN)NC(=O)[C@H]([C@@H](C)CC)NC1=O` [compound 503], for which the pKd is more than 9.00.

Regarding `CC[C@H](C)[C@@H]1NC(=O)[C@H](Cc2ccc(OCCN)cc2)NC(=O)[C@H](Cc2ccc(O)cc2)NC(=O)[C@H](CC(N)=O)NC(=O)[C@H](Cc2c[nH]c3ccccc23)NC(=O)[C@H](C(C)C)NC(=O)[C@H](Cc2ccccc2)N(C)C(=O)[C@H](C(C)C)NC(=O)[C@H](C)NC(=O)CSC[C@@H](C(N)=O)NC(=O)[C@H](Cc2ccc(O)cc2)N(C)C(=O)[C@H](Cc2ccccc2)NC(=O)[C@H](CCCNC(=N)N)NC(=O)[C@H](CCCCN)NC(=O)[C@H]([C@@H](C)CC)NC1=O` [compound 521], the pKd is 7.00 to 9.00.

Take `CC[C@H](C)[C@@H]1NC(=O)[C@H](Cc2ccc(OCCN)cc2)NC(=O)[C@H](Cc2ccc(O)cc2)NC(=O)[C@H](CC(N)=O)NC(=O)[C@H](Cc2c[nH]c3ccccc23)NC(=O)[C@H](C(C)C)NC(=O)[C@H](Cc2ccccc2)N(C)C(=O)[C@H](C(C)C)NC(=O)[C@H](C)NC(=O)CSC[C@@H](C(N)=O)NC(=O)[C@H](Cc2ccc(O)cc2)N(C)C(=O)[C@H](Cc2ccccc2)NC(=O)[C@H](CCCNC(=N)N)NC(=O)[C@H](CCCNC(=N)N)NC(=O)[C@H]([C@@H](C)CC)NC1=O` [compound 522]: the pKd is 6.00 to 7.00.

In the case of `CC[C@H](C)[C@@H]1NC(=O)[C@H](Cc2ccc(OCCN)cc2)NC(=O)[C@H](Cc2ccc(O)cc2)NC(=O)[C@H](CC(N)=O)NC(=O)[C@H](Cc2c[nH]c3ccccc23)NC(=O)[C@H](C(C)C)NC(=O)[C@H](Cc2ccccc2)N(C)C(=O)[C@H](C(C)C)NC(=O)[C@H](C)NC(=O)CSC[C@@H](C(N)=O)NC(=O)[C@H](Cc2ccc(O)cc2)N(C)C(=O)[C@H](Cc2ccccc2)NC(=O)[C@@H](CCCNC(=N)N)NC(=O)[C@H](CCCNC(=N)N)NC(=O)[C@H]([C@@H](C)CC)NC1=O` [compound 523], the pKd is 6.00 to 7.00.

For the compound `CC[C@H](C)[C@@H]1NC(=O)[C@H](Cc2ccc(OCCN)cc2)NC(=O)[C@H](Cc2ccc(O)cc2)NC(=O)[C@H](CC(N)=O)NC(=O)[C@H](Cc2c[nH]c3ccccc23)NC(=O)[C@H](C(C)C)NC(=O)[C@H](Cc2ccccc2)N(C)C(=O)[C@H](C(C)C)NC(=O)[C@H](C)NC(=O)CSC[C@@H](C(N)=O)NC(=O)[C@H](Cc2ccc(O)cc2)N(C)C(=O)[C@H](Cc2ccccc2)NC(=O)[C@H](CCCNC(=N)N)NC(=O)C(C)(C)NC(=O)[C@H]([C@@H](C)CC)NC1=O` [compound 524], the pKd is 6.00 to 7.00.

For the compound `CC[C@H](C)[C@@H]1NC(=O)[C@H](Cc2ccc(O)cc2)NC(=O)[C@H](Cc2ccc(O)cc2)NC(=O)[C@H](CC(N)=O)NC(=O)[C@H](Cc2c[nH]c3ccccc23)NC(=O)[C@H](C(C)C)NC(=O)[C@H](Cc2ccccc2)N(C)C(=O)[C@H](C(C)C)NC(=O)[C@H](C)NC(=O)CSC[C@@H](C(=O)NCC(=O)N[C@@H](CCCCN)C(N)=O)NC(=O)[C@H](Cc2ccc(O)cc2)N(C)C(=O)[C@H](Cc2ccc(O)cc2)NC(=O)[C@H](CCCNC(=N)N)NC(=O)[C@H](CCCNC(=N)N)NC(=O)[C@H]([C@@H](C)CC)NC1=O` [compound 525], the pKd was 7.00 to 9.00.

As for `CC[C@H](C)[C@@H]1NC(=O)[C@H](Cc2ccc(O)cc2)NC(=O)[C@H](Cc2ccc(O)cc2)NC(=O)[C@H](CC(N)=O)NC(=O)[C@H](Cc2c[nH]c3ccccc23)NC(=O)[C@H](C(C)C)NC(=O)[C@H](Cc2ccccc2)N(C)C(=O)[C@H](C(C)C)NC(=O)[C@H](C)NC(=O)CSC[C@@H](C(=O)NCC(=O)N[C@@H](CCCCN)C(N)=O)NC(=O)[C@H](Cc2ccc(O)cc2)N(C)C(=O)[C@H](Cc2ccc(O)cc2)NC(=O)[C@H](CCCNC(=N)N)NC(=O)[C@H](CCCCN)NC(=O)[C@H]([C@@H](C)CC)NC1=O` [compound 526], the pKd is 7.00 to 9.00.

Still in this assay, the particulars now being: SPR, result in words.
For the compound “hTfRNo.894FLIP-vivotag750: control: cyclic peptide with inverted No. 894 sequence (SEQ ID NO: 202) bound to VivoTag 750 via PEG11 linker ({CH2CO}-A[NMeY]YRRIIYYNWVFVC-{PEG11′-VivoTag750}; thioether N-15 (inferred); not fully specified; printed as ClAc-Ala-MeTyr-Tyr-Arg-Arg-Ile-Ile-Tyr-Tyr-Asn-Trp-Val-Phe-Val-Cys) [reference compound]”, the hTfR binding ability entry is reported as “no binding to hTfR was recognized”.

Broadly, the pKd is the Kd on a negative log10 scale, so that one unit is a factor of ten.
